The record followed here is patent US9399638B2, “Substituted pyridine compounds as CRAC modulators” (LUPIN LIMITED, priority 2012, dated 2016).

The assay has as its system IL-2 secretion by Jurkat T cells. Briefly: Inhibition of IL-2 secretion. It is filed as cell-based. Conditions: Homo sapiens; Jurkat T cells stimulated with PHA, 20 to 24 hours, IL-2 by ELISA. The protocol:
The CRAC channel modulatory activity of the compounds were thus evaluated by measuring the secretion of IL-2 by antigen stimulated T-cells in vitro. Alternatively, such activity can also be evaluated by assay methods known to one skilled in the art.
Inhibition of IL-2 secretion: Jurkat T cells were seeded at a density of 0.5 to 1 million cells per well in RPMI medium. Test compounds from this invention were added to the cells at different concentrations. This was followed by the addition of PHA, a T cell mitogen after 10 minutes. The cells were then incubated for 20 to 24 hours in a CO2 incubator at 37° C. After incubation with the compounds, cells were centrifuged, the supernatant was collected and processed for ELISA to quantitate the amount of IL-2 secreted. A commercial ELISA kit (R&D Systems, Inc. Minneapolis, Minn., USA) was used to estimate the IL-2 concentrations. Amount of IL-2 secreted by cells stimulated with PHA was considered as a 100% maximal signal and the decrease in amount of IL-2 secreted by cells treated with the test compounds was expressed as percent inhibition of the maximal signal. The dose response data was analyzed using 4-parametric sigmoidal dose response (variable slope) curve—fit.
Turning to `Cn1nc(-c2cnc(C3CC3)c(-c3ccc(NC(=O)c4c(F)cccc4F)nc3)c2)oc1=O` [Example 36, N-(2′-Cyclopropyl-5′-(4-methyl-5-oxo-4,5-dihydro-1,3,4-oxadiazol-2-yl)-[3,3′-bipyridin]-6-yl)-2,6-difluorobenzamide], the IC50 is < 100 nM.

On to `CCc1cc(-c2nn(C)c(=O)o2)cnc1-c1ccc(NC(=O)c2c(F)cccc2F)cc1` [Example 65, N-(4-(3-Ethyl-5-(4-methyl-5-oxo-4,5-dihydro-1,3,4-oxadiazol-2-yl)pyridin-2-yl)phenyl)-2,6-difluorobenzamide], for which the IC50 is > 1000 nM.

As to `Cc1c(-c2nn(C)c(=O)o2)ccnc1-c1ccc(NC(=O)c2c(F)cccc2F)cc1` [Example 20, 2,6-Difluoro-N-(4-(3-methyl-4-(4-methyl-5-oxo-4,5-dihydro-1,3,4-oxadiazol-2-yl)pyridin-2-yl)phenyl)benzamide], the concentration for half-maximal inhibition (IC50) was > 1000 nM.

Consider `CNc1ncc(-c2nn(C)c(=O)o2)cc1-c1ccc(NC(=O)c2c(F)cccc2F)cc1` [Example 10, 2,6-Difluoro-N-(4-(5-(4-methyl-5-oxo-4,5-dihydro-1,3,4-oxadiazol-2-yl)-2-(methylamino)pyridin-3-yl)phenyl)benzamide], for which the IC50 is < 100 nM.

Turning to `CCc1ncc(-c2nn(C)c(=O)o2)cc1-c1ccc(NC(=O)c2c(F)cccc2F)cc1` [Example 2, N-(4-(2-ethyl-5-(4-methyl-5-oxo-4,5-dihydro-1,3,4-oxadiazol-2-yl)pyridin-3-yl)phenyl)-2,6-difluorobenzamide], the IC50 is < 100 nM.

`CCc1cnc(-c2ccc(C(=O)Nc3c(F)cccc3F)cc2)cc1-c1nn(C)c(=O)o1` [Example 22, N-(2,6-Difluorophenyl)-4-(5-ethyl-4-(4-methyl-5-oxo-4,5-dihydro-1,3,4-oxadiazol-2-yl)pyridin-2-yl)benzamide]: the IC50 was > 1000 nM.

As to `CNc1ncc(-c2nn(C)c(=O)o2)cc1-c1ccc(C(=O)Nc2c(F)cccc2F)s1` [Example 61, N-(2,6-Difluorophenyl)-5-(5-(4-methyl-5-oxo-4,5-dihydro-1,3,4-oxadiazol-2-yl)-2-(methylamino)pyridin-3-yl)thiophene-2-carboxamide], the IC50 was < 100 nM.

Regarding `Cn1nc(-c2cnc(C3CC3)c(-c3ccc(C(=O)Nc4c(F)cccc4Cl)s3)c2)oc1=O` [Example 42, N-(2-Chloro-6-fluorophenyl)-5-(2-cyclopropyl-5-(4-methyl-5-oxo-4,5-dihydro-1,3,4-oxadiazol-2-yl)pyridin-3-yl)thiophene-2-carboxamide], the IC50 was < 100 nM.

`CNc1ncc(-c2nn(C)c(=O)o2)cc1-c1cnc(NC(=O)c2c(F)cccc2F)cn1` [Example 56, 2,6-Difluoro-N-(5-(5-(4-methyl-5-oxo-4,5-dihydro-1,3,4-oxadiazol-2-yl)-2-(methylamino)pyridin-3-yl)pyrazin-2-yl)benzamide]: the 50% inhibitory concentration (IC50) was > 1000 nM.

Consider `CNc1ncc(-c2nn(C)c(=O)o2)cc1-c1ccc(NC(=O)c2c(F)cccc2Cl)cc1` [Example 11, 2-Chloro-6-fluoro-N-(4-(5-(4-methyl-5-oxo-4,5-dihydro-1,3,4-oxadiazol-2-yl)-2-(methylamino)pyridin-3-yl)phenyl)benzamide], for which the IC50 is < 100 nM.

On to `Cc1cc(NC(=O)c2c(F)cccc2F)ccc1-c1cc(-c2nn(C)c(=O)o2)cnc1C(F)(F)F` [Example 8, 2,6-difluoro-N-(3-methyl-4-(5-(4-methyl-5-oxo-4,5-dihydro-1,3,4-oxadiazol-2-yl)-2-(trifluoromethyl)pyridin-3-yl)phenyl)benzamide], for which the IC50 lay in the range of 100 to 1000 nM.

In the case of `CCc1ncc(-c2ccc(NC(=O)c3c(F)cccc3F)cc2)cc1-c1nn(C)c(=O)o1` [Example 68, N-(4-(6-Ethyl-5-(4-methyl-5-oxo-4,5-dihydro-1,3,4-oxadiazol-2-yl)pyridin-3-yl)phenyl)-2,6-difluorobenzamide], the IC50 is > 1000 nM.

In the case of `Cn1nc(-c2cncc(-c3ccc(NC(=O)c4c(F)cccc4F)cc3)c2)oc1=O` [Example 14, 2,6-Difluoro-N-(4-(5-(4-methyl-5-oxo-4,5-dihydro-1,3,4-oxadiazol-2-yl)pyridin-3-yl)phenyl)benzamide], the half-maximal inhibitory concentration (IC50) is > 1000 nM.

For the compound `CCc1cnc(-c2ccc(NC(=O)c3c(F)cccc3F)cc2)cc1-c1nn(C)c(=O)o1` [Example 21, N-(4-(5-Ethyl-4-(4-methyl-5-oxo-4,5-dihydro-1,3,4-oxadiazol-2-yl)pyridin-2-yl)phenyl)-2,6-difluorobenzamide], the IC50 was > 1000 nM.

In turn, `CCc1ncc(-c2nn(C)c(=O)o2)cc1-c1ccc(NC(=O)c2c(F)cccc2F)cn1` [Example 31, N-(2′-ethyl-5′-(4-methyl-5-oxo-4,5-dihydro-1,3,4-oxadiazol-2-yl)-[2,3′-bipyridin]-5-yl)-2,6-difluorobenzamide] returned an IC50 of 100 to 1000 nM.

Regarding `Cn1nc(-c2cnc(C(F)(F)F)c(-c3ccc(C(=O)Nc4c(F)cccc4F)s3)c2)oc1=O` [Example 60, N-(2,6-Difluorophenyl)-5-(5-(4-methyl-5-oxo-4,5-dihydro-1,3,4-oxadiazol-2-yl)-2-(trifluoromethyl)pyridin-3-yl)thiophene-2-carboxamide], the IC50 is < 100 nM.
